Experimental data from ChEMBL document CHEMBL1681745, “Synthesis and photophysical properties of new SNARF derivatives as dual emission pH sensors” (Bioorg Med Chem Lett, 2011).

Experiments:
[1] = Dissociation constant, pKa of the compound by UV spectrum analysis; format: physicochemical
V79 = assay: Cellular uptake in chinese hamster V79 cells at 10 uM after 1 hr by flow cytometry; format: ADME, cell-based, Cricetulus griseus; settings: v79, 1 h

SMILES	pKa [1]	Drug uptake (V79)
CN(C)c1ccc2c(c1)Oc1c(ccc3cc(O)ccc13)C21OC(=O)c2c(F)c(F)c(F)c(F)c21 (stereo unspecified)	7.38	Active
CN(C)c1ccc2c(c1)Oc1c(ccc3cc(O)ccc13)C21OC(=O)c2c(Cl)c(Cl)c(Cl)c(Cl)c21 (stereo unspecified)	7.9	Active
C[N+](C)=c1ccc2c(-c3ccccc3C(=O)O)c3ccc4cc(O)ccc4c3oc-2c1	7.62	Active
